Several values for one entry are separate records, joined by “and”; a condition that tells them apart may be missing. Equal entries are not always repeated. Inconclusive results and toxic doses are left out.
Tested on: CD2F1 mice, L1210 leukemia ip, survival T/C
Assay: NCI In Vivo Anticancer Drug Screen. Data for tumor model L1210 Leukemia (intraperitoneal) in CD2F1 (CDF1) mice
Details: higher = longer survival
How it was run: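 Ratio T/C, where T is the treated-group value and C the vehicle-dosed control value, from mice implanted with a transplantable tumor.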

[1] = endpoint: mean survival time, dose: 100.0 mg/kg/injection, schedule: Q01DX001 (ip), vehicle: saline with Tween-80
[2] = endpoint: mean survival time, dose: 200.0 mg/kg/injection, schedule: Q01DX001 (ip), vehicle: saline with Tween-80
[3] = endpoint: mean survival time, dose: 400.0 mg/kg/injection, schedule: Q01DX001 (ip), vehicle: saline with Tween-80
[4] = endpoint: mean survival time, dose: 100.0 mg/kg/injection, schedule: Q04DX003 (ip), vehicle: saline with Tween-80
[5] = endpoint: mean survival time, dose: 200.0 mg/kg/injection, schedule: Q04DX003 (ip), vehicle: saline with Tween-80
[6] = endpoint: mean survival time, dose: 400.0 mg/kg/injection, schedule: Q04DX003 (ip), vehicle: saline with Tween-80

For CC(=O)Nc1nc(C)c(S(=O)(=O)O)s1, the T/C (endpoint: mean survival time, dose: 75.0 mg/kg/injection, schedule: Q01DX001 (ip), vehicle: saline) was 101 % of control, the T/C (endpoint: mean survival time, dose: 150.0 mg/kg/injection, schedule: Q01DX001 (ip), vehicle: saline) was 93 % of control and the T/C (endpoint: mean survival time, dose: 300.0 mg/kg/injection, schedule: Q01DX001 (ip), vehicle: saline) was 90 % of control.

For COc1cccc(/C=N/[N+](C)(C)C)c1O, the T/C (endpoint: mean survival time, dose: 50.0 mg/kg/injection, schedule: Q01DX001 (ip), vehicle: saline) was 107 % of control, the T/C (endpoint: mean survival time, dose: 100.0 mg/kg/injection, schedule: Q01DX001 (ip), vehicle: saline) was 101 % of control and the T/C (endpoint: mean survival time, dose: 200.0 mg/kg/injection, schedule: Q01DX001 (ip), vehicle: saline) was 97 % of control.

With CC(C)(CO)NC(=O)CC1CCCCC1 the T/C [1] was 103 % of control, the T/C [2] was 103 % of control and the T/C [3] was 100 % of control.

CCCCOC(=O)Nc1ccccn1 was tested, and the T/C (endpoint: mean survival time, dose: 100.0 mg/kg/injection, schedule: Q04DX002 (ip), vehicle: saline with Tween-80) was 101 % of control and the T/C (endpoint: mean survival time, dose: 200.0 mg/kg/injection, schedule: Q04DX002 (ip), vehicle: saline with Tween-80) was 104 % of control.

In the case of CC(=O)C(CCCCCCCCCCC(C(C)=O)C(C)=O)C(C)=O, the T/C [1] is reported as 93 % of control, the T/C [2] is reported as 101 % of control and the T/C [3] is reported as 94 % of control.

For CC1CC=C(/C=N/Nc2ccc([N+](=O)[O-])cc2[N+](=O)[O-])C(C)O1 (centres undefined), the T/C [1] was 107 % of control, the T/C [2] was 101 % of control and the T/C [3] was 98 % of control.

CC1(C)CC(NC(=O)CSc2ncnc3c2ncn3C2OC(CO)C(O)C2O)CC(C)(C)N1O (centres undefined) was tested, and the T/C (endpoint: mean survival time, dose: 12.5 mg/kg/injection, schedule: Q01DX005 (ip), vehicle: water) was 96 % of control, the T/C (endpoint: mean survival time, dose: 25.0 mg/kg/injection, schedule: Q01DX005 (ip), vehicle: water) was 94 % of control and the T/C (endpoint: mean survival time, dose: 50.0 mg/kg/injection, schedule: Q01DX005 (ip), vehicle: water) was 94 % of control. For the same compound, the T/C (endpoint: mean survival time, dose: 100.0 mg/kg/injection, schedule: Q01DX005 (ip), vehicle: water) was 102 % of control and the T/C (endpoint: mean survival time, dose: 200.0 mg/kg/injection, schedule: Q01DX005 (ip), vehicle: water) was 96 % of control.

In the case of COc1cc(N)ccc1NC(=O)c1ccccc1, the T/C (endpoint: mean survival time, dose: 6.25 mg/kg/injection, schedule: Q01DX009 (ip), vehicle: saline with Tween-80) is reported as 94 % of control, the T/C (endpoint: mean survival time, dose: 12.5 mg/kg/injection, schedule: Q01DX009 (ip), vehicle: saline with Tween-80) is reported as 94 % of control and 100 % of control and the T/C (endpoint: mean survival time, dose: 25.0 mg/kg/injection, schedule: Q01DX009 (ip), vehicle: saline with Tween-80) is reported as 93 % of control and 105 % of control.

With COc1ccc(-c2cc(-c3ccccc3)n[nH]2)cc1 the T/C [4] was 93 % of control, the T/C [5] was 97 % of control and the T/C [6] was 93 % of control.

In the case of COc1cccc(CN2CCN(N)CC2)c1, the T/C (endpoint: mean survival time, dose: 12.5 mg/kg/injection, schedule: Q01DX009 (ip), vehicle: Klucel (hydroxypropylcellulose) (HPC)) is reported as 98 % of control, the T/C (endpoint: mean survival time, dose: 25.0 mg/kg/injection, schedule: Q01DX009 (ip), vehicle: Klucel (hydroxypropylcellulose) (HPC)) is reported as 97 % of control and the T/C (endpoint: mean survival time, dose: 50.0 mg/kg/injection, schedule: Q01DX009 (ip), vehicle: Klucel (hydroxypropylcellulose) (HPC)) is reported as 97 % of control. The T/C (endpoint: mean survival time, dose: 100.0 mg/kg/injection, schedule: Q01DX009 (ip), vehicle: Klucel (hydroxypropylcellulose) (HPC)) was 92 % of control and the T/C (endpoint: mean survival time, dose: 200.0 mg/kg/injection, schedule: Q01DX009 (ip), vehicle: Klucel (hydroxypropylcellulose) (HPC)) was 97 % of control.

For OC[CH2][Hg][Br], the T/C (endpoint: mean survival time, dose: 0.37 mg/kg/injection, schedule: Q01DX009 (ip), vehicle: saline) was 90 % of control, the T/C (endpoint: mean survival time, dose: 0.75 mg/kg/injection, schedule: Q01DX009 (ip), vehicle: saline) was 92 % of control and the T/C (endpoint: mean survival time, dose: 1.5 mg/kg/injection, schedule: Q01DX009 (ip), vehicle: saline) was 95 % of control. The T/C (endpoint: mean survival time, dose: 3.0 mg/kg/injection, schedule: Q01DX009 (ip), vehicle: saline) was 93 % of control.

With OC(c1ccccc1)c1nc2ccccc2[nH]1 (centres undefined) the T/C (endpoint: mean survival time, dose: 100.0 mg/kg/injection, schedule: Q01DX009 (ip), vehicle: saline with Tween-80) was 98 % of control, the T/C [4] was 101 % of control and the T/C (endpoint: mean survival time, dose: 200.0 mg/kg/injection, schedule: Q01DX009 (ip), vehicle: saline with Tween-80) was 95 % of control. For the same compound, the T/C [5] was 96 % of control, the T/C (endpoint: mean survival time, dose: 400.0 mg/kg/injection, schedule: Q01DX009 (ip), vehicle: saline with Tween-80) was 96 % of control and the T/C [6] was 100 % of control.

With CNC(=O)OCc1nc(SC)n(C)c1COC(=O)NC the T/C (endpoint: median survival time, dose: 12.5 mg/kg/injection, schedule: Q01DX005 (ip), vehicle: saline) was 103 % of control, the T/C (endpoint: median survival time, dose: 12.5 mg/kg/injection, schedule: Q01DX005 (ip), vehicle: suspension in saline) was 111 % of control and the T/C (endpoint: median survival time, dose: 25.0 mg/kg/injection, schedule: Q01DX005 (ip), vehicle: saline) was 111 % of control. The T/C (endpoint: median survival time, dose: 25.0 mg/kg/injection, schedule: Q01DX005 (ip), vehicle: suspension in saline) was 114 % of control, the T/C (endpoint: median survival time, dose: 65.0 mg/kg/injection, schedule: Q01DX005 (ip), vehicle: saline) was 175 % of control and the T/C (endpoint: median survival time, dose: 200.0 mg/kg/injection, schedule: Q01DX005 (ip), vehicle: suspension in saline) was 87 % of control.
